Results as given in ChEMBL document CHEMBL3593192, “Synthesis and biological evaluation of novel histone deacetylases inhibitors with nitric oxide releasing activity” (Bioorg Med Chem, 2015).
Activity calls are given as the source filed them. The calls are words filed in the database; no cut-off is given here.

What was measured:
[1] = target: Histone deacetylase (HDAC1 and HDAC2) (Homo sapiens, UniProt Q13547+Q92769); test: Inhibition of HDAC1/2 in human HeLa cells using Boc-Lys (acetyl)-AMC as substrate preincubated for 30 mins followed by substrate addition measured after 30 mins by fluorescence assay; format: cell-based
[2] = system: HCT-116; test: cells; format: functional, cell-based; conditions: Homo sapiens, HCT-116, 48 h
[3] = system: U-937; test: Cytotoxicity against human U937 cells assessed as inhibition of cell proliferation after 48 hrs by MTT assay; format: functional, cell-based; conditions: U-937, 48 h
[4] = system: B16; test: cells; format: functional, cell-based; conditions: Mus musculus, B16, 48 h
Description: Cytotoxicity against mouse B16 cells assessed as inhibition of cell proliferation after 48 hrs by MTT assay

[5] = system: PC-3; test: cells; format: functional, cell-based; conditions: Homo sapiens, PC-3, 48 h
Description: Cytotoxicity against human PC3 cells assessed as inhibition of cell proliferation after 48 hrs by MTT assay

[6] = system: HeLa; test: cells; format: functional, cell-based; conditions: Homo sapiens, 48 h
Description: Cytotoxicity against human HeLa cells assessed as inhibition of cell proliferation after 48 hrs by MTT assay

[7] = system: HEL; test: cells; format: functional, cell-based; conditions: Homo sapiens, 48 h
Description: Cytotoxicity against HEL cells assessed as inhibition of cell proliferation after 48 hrs by MTT assay

[8] = cells; format: functional, cell-based; conditions: Homo sapiens, KG-1, 48 h
Description: Cytotoxicity against human KG1 cells assessed as inhibition of cell proliferation after 48 hrs by MTT assay

[9] = cells; format: functional, cell-based, ES2; conditions: Homo sapiens, ES-2, 48 h
Description: Cytotoxicity against human ES2 cells assessed as inhibition of cell proliferation after 48 hrs by MTT assay

[10] = system: HCT-116; test: Induction of nitric oxide production in human HCT116 cells at 100 uM after 5 hrs by Griess assay; format: functional, cell-based
[11] = system: HCT-116; test: Cytotoxicity against nitric oxide scavenger hemoglobin-treated human HCT116 cells assessed as inhibition of cell proliferation at 2 uM after 24 hrs by MTT assay; format: functional, cell-based
[12] = system: HCT-116; test: Cytotoxicity against human HCT116 cells assessed as inhibition of cell proliferation after 48 hrs by MTT assay in presence of SAHA; format: functional, cell-based; conditions: HCT-116, 48 h

Row | Structure (SMILES) | IC50 [1] [µM] | IC50 [2] [µM] | IC50 [3] [µM] | IC50 [4] [µM] | IC50 [5] [µM] | IC50 [6] [µM] | IC50 [7] [µM] | IC50 [8] [µM] | IC50 [9] [µM] | Activity [10] | inhibition [11] | IC50 [12] [µM]
1 | O=C(CCCCCCOC(=O)c1ccc2c(c1)no[n+]2[O-])NO | 0.0184 | 1.09 | 12.4 | 4.97 | 0.95 | 9.18 | 1.26 | 0.37 | 5.07 | Active | inactive | 
2 | O=C(CCCCCOC(=O)c1cccc2c1no[n+]2[O-])NO | 0.017 | 2.81 | 21.6 | 27.9 | 16.9 | 42.1 | 3.74 | 12.4 | 66.3 | Active |  | 
3 | O=C(CCCCCCCOC(=O)c1cccc2c1no[n+]2[O-])NO | 0.1373 | > 80 | > 80 | > 80 | > 80 | 34.2 | 12.1 | 0.53 | > 80 |  |  | 
4 | O=C(CCCCCCC(=O)Nc1ccccc1)NO [VORINOSTAT] |  |  | 4.82 |  |  |  |  |  |  |  |  | 
5 | O=C(CCCOC(=O)c1ccc2c(c1)no[n+]2[O-])NO | 5.5697 | 2.06 | 13 | 22.2 | 6.58 | 17 | 2.09 | 4.02 | 27.1 |  |  | 
6 | O=C(CCCCOC(=O)c1ccc2c(c1)no[n+]2[O-])NO | 2.207 | 2.63 | 19.9 | 24 | 12.7 | 15.9 | 1.21 | 8.19 | 25 |  |  | 
7 | O=C(CCCCOC(=O)c1cccc2c1no[n+]2[O-])NO | 0.2576 | 2.73 | 11.3 | 30.5 | 14.2 | 20.2 | 3.14 | 6.69 | 44.4 |  |  | 
8 | O=C(CCCCCOC(=O)c1ccc2c(c1)no[n+]2[O-])NO | 0.437 | 3.36 | 33.4 | 30.2 | 12.4 | 17.3 | 11.6 | 3.69 | 20.6 | Active |  | 
9 | O=C(CCCOC(=O)c1cccc2c1no[n+]2[O-])NO | 6.8072 | 16.2 | 53.9 | > 80 | 13.4 | 72 | 6.6 | 12.4 | 73.8 |  |  | 
10 | O=C(O)c1ccc2c(c1)no[n+]2[O-] | > 1000 | 55.8 |  |  |  |  |  |  |  | Active |  | 11.5
11 | O=C(O)c1cccc2c1no[n+]2[O-] | > 1000 | 64 |  |  |  |  |  |  |  | Active |  | 8.52
12 | O=C(CCCCCCOC(=O)c1cccc2c1no[n+]2[O-])NO | 0.0128 | 1.09 | 34.6 | 18.2 | 9.37 | 27.2 | 3.71 | 2.98 | 21.2 | Active | inactive | 
13 | O=C(CCCCCCCOC(=O)c1ccc2c(c1)no[n+]2[O-])NO | 0.1804 | 2.29 | 11.9 | 7.99 | 1.39 | 5.31 | 1.5 | 5.21 | 9.23 | Active |  | 
